Data on 2 molecules can be found in patent US20170166555A1, “FUNCTIONALISED AND SUBSTITUTED INDOLES AS ANTI-CANCER AGENTS” (Novogen Limited, priority 2013, published 2017).

The target of one assay is Tm5NM1 (Homo sapiens, UniProt P06753). Briefly: Pyrene-based actin filament depolymerization assay. The class given is biochemical. To be noted: for Rate of depolymerization of Tm5NM1-containing actin filaments in the presence of compound (in words): Tm5NM1 pre-incubated with 50 μM compound, compared to F-actin alone. As to the method: FIG. 4: Impact of compounds 4015 and 4093 on Tm5NM1-regulated actin-filament depolymerization kinetics. (A, C and E) Depolymerization time course of 6 μM actin filaments (35% pyrene labelled) diluted 12-fold into F-actin buffer (100 mM NaCl, 10 mM Tris-HCl pH 7.0, 2 mM MgCl2, 1 mM EGTA, 0.2 mM CaCl2, 0.2 mM ATP, 0.5 mM DTT, 0.01% (v/v) NaN3) in the presence or absence of saturating amounts (10 μM) of Tm5NM1. Final concentration of F-actin and Tm5NM1 was 0.5 μM and 0.83 μM respectively. Tm5NM1 was pre-incubated with 50 μM 4015, 4093 or 1% (v/v) DMSO prior to mixing with F-actin. Depolymerization data is normalized to the initial fluorescence value. (B, D and F) Initial rates (V0) of depolymerization for F-actin alone or Tm5NM1/F-actin, in the presence of compound 4015 or 4093. Initial rates of depolymerization were determined from the first 3600 s, fitted to a linear regression model. Data represents mean ±SEM, averaged from n>8 replicates. **** p<0.0001, ** p<0.005.
A brief overview and rationale of the assay is as follows: to promote depolymerization, pyrene-labelled actin filaments were diluted below the critical concentration of the pointed end (0.5 μM, as defined by Pollard et al., 1986). A decline in fluorescence was measured over time as actin monomers dissociate. […] Therefore, any compound, which interacts with, and impacts Tm5NM1 function, would nullify the protective effect of Tm5NM1 on actin depolymerization.
For all assays the depolymerization of F-actin alone and F-actin-coated with the human homologue of Tm5NM1 was used as a comparative control. Briefly, Tm5NM1 was pre-incubated with F-actin for 20 minutes prior to diluting the filaments, to allow for proper assembly of the Tm5NM1 polymer.
The depolymerization of F-actin alone and F-actin-coated with Tm5NM1 was then measured in the presence of test compound and initial rates of depolymerization were compared. Tm5NM1 was pre-incubated with 50 μM 4015 and 4093 prior to being added to the actin filaments as previously described. In the presence of compound 4015, the rate of depolymerization of Tm5NM1-containing actin filaments was increased.

Assay [1] has as its system SK-N-SH neuroblastoma cells. Briefly: Anti-proliferative assay, cell-titre luminescent reagent, 72 h (GVK-BIO). The assay is classed as cell-based. As to conditions: Homo sapiens, SK-N-SH, 30, 3, 0.3 and 0.03 μM, linear regression (Tables 2-4). The method, boiled down:
(§1)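 Seed at predetermined density, 24 h attach (37 °C, 5% CO2). Dose 4-point (30–0.03 μM, 10-fold) → IC50 by linear regression on semi-log plot; or 6-point (30–0.1 μM) → EC50 by sigmoidal variable-slope fit. Reagent 30 min, luminescence vs untreated control.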

The subject of assay [2] is CaCo2 colorectal cancer cells. Described as above. To be noted: Homo sapiens, Caco-2, 72 h, 30, 3, 0.3 and 0.03 μM, linear regression (Tables 2-4). The class given is cell-based. In a few lines:
as §1

The subject of assay [3] is A549 non-small cell lung carcinoma cells. Described as above. The class given is cell-based. To be noted: Homo sapiens, A549, 72 h, 30, 3, 0.3 and 0.03 μM, linear regression (Tables 2-4), read-out: IC50/μM Lung (NSLC) A549. In a few lines:
as §1

Assay [4] has as its system DU145 prostate cancer cells. The assay is described as above. As to conditions: Homo sapiens, DU-145, 72 h, 30, 3, 0.3 and 0.03 μM, linear regression (Tables 2-4). The class given is cell-based. In a few lines:
as §1

Assay [5] concerns MDA-MB-231 triple negative breast cancer cells. The assay is described as above. To be noted: Homo sapiens, MDA-MB-231, 72 h, 30, 3, 0.3 and 0.03 μM, linear regression (Tables 2-4). The assay is classed as cell-based. The method, boiled down:
as §1

A further assay deals with SK-Mel-28 melanoma cells. Described as above. To be noted: Homo sapiens, SK-MEL-28, 72 h, 30, 3, 0.3 and 0.03 μM, linear regression (Tables 2-4). The assay is classed as cell-based. The method, boiled down:
as §1

Assay [6] concerns PC3 prostate cancer cells. The description is as above. The class given is cell-based. As to conditions: 30, 3, 0.3 and 0.03 μM, linear regression (Tables 2-4). The method, boiled down:
as §1

Sequence of Tm5NM1 (P06753 1-248 isoform P06753-2): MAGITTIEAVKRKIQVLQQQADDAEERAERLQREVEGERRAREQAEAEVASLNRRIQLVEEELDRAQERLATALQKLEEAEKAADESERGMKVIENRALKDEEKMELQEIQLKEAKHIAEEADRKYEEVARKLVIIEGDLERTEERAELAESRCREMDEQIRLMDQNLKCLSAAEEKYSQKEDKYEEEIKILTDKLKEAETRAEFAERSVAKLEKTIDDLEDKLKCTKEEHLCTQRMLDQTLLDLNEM

`Cc1c(C)n(CCCN(C)C)c2ccc(CN3CCN(CCc4ccccc4)CC3)cc12` [Compound 4015, 3-(2,3-dimethyl-5-((4-phenethylpiperazin-1-yl)methyl)-1H-indol-1-yl)-N,N-dimethylpropan-1-amine]: the “Rate of depolymerization of Tm5NM1-containing actin filaments in the presence of compound (in words)” value at Tm5NM1 is on record as “increased”. In addition, the IC50 was 4.6 µM in assay [1]; 2.9 µM in assay [2]; 1.8 µM in assay [3]; 3.7 µM in assay [4]; 3 µM in assay [5]; 3.9 µM in the assay with SK-Mel-28 melanoma cells. Also, in assay [6], the IC50 was determined as 2.9 µM.

In the case of `Cc1c(C)n(CCCN(C)C)c2ccc(Oc3ccc(C(=O)Nc4ccc(F)cc4)cc3)cc12` [Compound 4093, 4-((1-(3-(dimethylamino)propyl)-2,3-dimethyl-1H-indol-5-yl)oxy)-N-(4-fluorophenyl)benzamide], the “Initial rate (V0) of depolymerization, F-actin alone” value at Tm5NM1 (50 μM compound, FIG. 4E and F) is listed as −0.30±0.029×10^−4. The “Initial rate (V0) of depolymerization, Tm5NM1-containing actin” value at Tm5NM1 (50 μM compound, FIG. 4E and F) is listed as −0.26±0.028×10^−4. Also, the “Rate of depolymerization of Tm5NM1-containing actin filaments in the presence of compound (in words)” value at Tm5NM1 is “no significant difference”. Besides, the IC50 is 2.5 µM in assay [1]; 1.8 µM in assay [2]; 3 µM in assay [3]; 1.7 µM in assay [4]; 2.1 µM in assay [5]; 0.9 µM in the assay on SK-Mel-28 melanoma cells. Besides, in assay [6], the IC50 was found to be 1.2 µM.
